Laboratory results reported in patent US20070184549A1, “Method of inducing fenestrae” (priority 2004, published 2007).

Legend:
[1] = test system: actin microfilaments of bEND5 cells; test: Actin microfilament staining with Alexa546-conjugated phalloidin, time-course in bEND5 cells; type: cell-based, mouse; conditions: for earliest dramatic changes in the organization of actin, time of treatment / time until which cortical actin persisted / was dismantled / time within which stress fibers were reduced: 10 μM Cytochalasin B or 2.5 μM Latrunculin A
Description: Stress fibers were reduced within the first 20 minutes, whereas cortical actin persisted until about 60 minutes of treatment. At 120 minutes, individual actin bundles were spread around the cytoplasm. (Bar=8 μm)
FIG. 11 show images of bEND5 cells that were treated with 2.5 μM Latrunculin A for different periods of time, and actin microfilaments were stained with Alexa546-conjugated phalloidin. Stress fibers were reduced within the first 20 minutes, while complete disruption occurs at 60-120 minutes. Individual actin foci, small filaments, and actin-rich filopodia were present after 180 minutes of treatment. (Bar=8 μm)
(§1) Microfilaments were disrupted in all cell types upon treatment. (Bar=8 μm)
In parallel to the SEM analysis, bEND5 cells subjected to cytochalasin B and latrunculin A time-courses were stained for the presence of actin microfilaments using phalloidin (FIGS. 10 and 11). Untreated cells contained an extensive network of stress fibers spanning their cytoplasm. Dramatic changes in the organization of actin were however observed as early as after 10 minutes of treatment with either agent. […] At 120 minutes, the disassembled actin was concentrated in aggregates throughout the cytoplasm, while large areas remained actin-deficient. In cells treated with latrunculin A (FIG. 11) the disruption of stress fibers was faster, and the cortical cytoskeleton was dismantled within the first 20 minutes. Overall cells had more and larger actin-depleted areas, and the remainder of actin appeared irregularly arranged in short filaments around the cytoplasm or in structures resembling filopodia.

Py4.1 cells = test: Fenestrae induction in Py4.1 cells, wholemount TEM; type: cell-based, mouse; conditions: for fenestrae formation: 2.5 μM Latrunculin A, 3 hours, wholemount TEM
Description: (§2) FIG. 9 is a graph regarding fenestrae induction in different endothelial cell types. The potential of different endothelial cell lines to form fenestrae under the optimal parameters of induction was assessed using wholemount TEM. bEND5, Py4.1, SVEC, and HUVEC cells were treated for 3 hours with vehicle (V) or 2.5 μM Latrunculin A (Lat), and the number of fenestrae was estimated as a fraction of the plasma membrane area occupied by sieve plates. Data points represent the average of two experiments, with 36 images captured per sample in each experiment. Error bars represent standard deviation between the two experiments.
A panel of endothelial cell subtypes was assessed for their fenestrae-forming potentials. Three mouse endothelial lines (bEND5, Py4.1, SVEC) and one human primary endothelial line (HUVEC) were cultured on gelatin-coated grids, treated with latrunculin A for 3 hours, and examined by wholemount TEM (FIG. 8). bEND5 and Py4.1 cells are brain endothelomas and ear/tail endotheliomas respectively, both originating from hemangiomas of Polyoma virus—infected mice. SVECs are lymph node endothelial cells infected with SV40 virus. HUVECs were chosen because of their widespread use and primary cell nature. […] The response of bEND5 and Py4.1 cells differed both in magnitude and in relation to the respective untreated controls. bEND5 cells harbored greater numbers of fenestrae overall, but contained some background fenestrae in the un-induced state.

bEND5 cells = test: Fenestrae induction in bEND5 cells, quantified by stereology on SEM or wholemount TEM images; conditions: for induction of fenestrae compared to the untreated control: cytochalasin B (10 nM) or Latrunculin A (2.5 nM) alone; for induction of fenestrae compared to the untreated control / maximum number of fenestrae: SEM; for maximum number of fenestrae: cytochalasin B at 2 hours, latrunculin A after 3 hours; for time of treatment at maximum number of fenestrae: single agent, SEM time-course; for fenestrae formation: 2.5 μM Latrunculin A, 3 hours, wholemount TEM
Excerpt: Images were printed, and sieve plates were marked (solid line). A grid (20 mm×20 mm) was overlaid over each image and the number of grid points falling within the areas delineated or on any cellular structure were counted. Fenestrae abundance was estimated based on the following calculation: Plasma membrane coverage (or fraction of the plasma membrane occupied by sieve plates)=grid points falling on sieve plates/grid points falling on any cell area. To express abundance in terms of the number of fenestrae per area of plasma membrane, the density of fenestrae within sieve plates was calculated and multiplied by the frequency of sieve plates as follows: number of fenestrae per square μm=density of fenestrae×plasma membrane coverage.
A quantitative assessment of fenestrae numbers was achieved by applying Stereology to SEM or wholemount TEM images (FIG. 3). Quantitative assessment comprised overlaying a lattice on top of an image and counting points falling on fenestrated and on non-fenestrated areas of the plasma membrane. Amounts of fenestrae were routinely expressed as fractions of plasma membrane area that was fenestrated (point counts falling on fenestrae divided by point counts falling on any plasma membrane area). To compare these numbers with measurements in previous in vivo or in vitro studies, the density of individual fenestrae within sieve plates was estimated, which when multiplied by the fraction of plasma membrane coverage equaled the number of fenestrae per μm^2 of plasma membrane.
Coverslips and dishes were coated with 1% gelatin (Sigma) solution in PBS for 30 minutes at room temperature. Endothelial cells were seeded overnight at a density equivalent to 1.5×10^6 cells per 100 mm dish. Cultures were induced with Cytochalasin B (Sigma) at 10 μM for 2 hours, with Latrunculin A (Molecular Probes) at 2.5 μM for 3 hours, or with a combination of recombinant mouse 75 ng/ml VEGF (R&D systems) for 6-72 hours and 10 μM Cytochalasin B for 2 hours. Cells were processed for biochemistry or morphology immediately after the end of the induction.

actin filaments = conditions: barbed, fast growing end of actin filaments; cited from earlier work
[2] = test system: actin cytoskeleton of SVEC cells; test: Actin cytoskeleton staining with phalloidin in SVEC cells; type: cell-based, mouse; conditions: 2.5 μM Latrunculin A, 3 hours
Excerpt: as §1
(§3) The actin cytoskeleton of all four cell types was stained with phalloidin to study the differential induction of endothelial cell subtypes by latrunculin A (FIG. 12). […] Observation of bEND5 and Py4.1 cells highlighted a difference in their actin cytoskeleton in the steady state (FIGS. 12A and 12C). Py4.1 cells had greater amounts of cortical actin. This could account for their decreased susceptibility to fenestrae formation compared to bEND5 cells, a discrepancy particularly apparent during induction with cytochalasin B.

SVEC cells = test: Fenestrae induction in SVEC cells, wholemount TEM; type: cell-based, mouse; conditions: 2.5 μM Latrunculin A, 3 hours
Description: as §2
(§4) A panel of endothelial cell subtypes was assessed for their fenestrae-forming potentials. Three mouse endothelial lines (bEND5, Py4.1, SVEC) and one human primary endothelial line (HUVEC) were cultured on gelatin-coated grids, treated with latrunculin A for 3 hours, and examined by wholemount TEM (FIG. 8). bEND5 and Py4.1 cells are brain endothelomas and ear/tail endotheliomas respectively, both originating from hemangiomas of Polyoma virus—infected mice. SVECs are lymph node endothelial cells infected with SV40 virus. HUVECs were chosen because of their widespread use and primary cell nature. […]

HUVEC cells = test: Fenestrae induction in HUVEC cells, wholemount TEM; type: cell-based, human; conditions: 2.5 μM Latrunculin A, 3 hours
Description: as §2, §4

[3] = test system: actin cytoskeleton of Py4.1 cells; test: Actin cytoskeleton staining with phalloidin in Py4.1 cells; type: cell-based, mouse; conditions: 2.5 μM Latrunculin A, 3 hours
Excerpt: as §1, §3

[4] = test system: actin cytoskeleton of HUVEC cells; test: Actin cytoskeleton staining with phalloidin in HUVEC cells; type: cell-based, human; conditions: 2.5 μM Latrunculin A, 3 hours
Excerpt: as §1, §3

actin monomers = conditions: 1:1 complexes with actin monomers; cited from earlier work
[5] = test system: primary liver endothelial cells; conditions: cited from earlier work
[6] = test system: normally non-fenestrated anatomical sites; conditions: topical application or intradermal injection; cited from earlier work

C=C1[C@@H](C)[C@H]2[C@H](Cc3ccccc3)NC(=O)[C@]23OC(=O)/C=C/[C@H](O)CCC[C@@H](C)C/C=C/[C@H]3[C@@H]1O [cytochalasin B]
earliest dramatic changes in the organization of actin, time of treatment [1]: 10 min
time until which cortical actin persisted / was dismantled [1]: about 60 minutes
time within which stress fibers were reduced [1]: ≤ 20 min
response of Py4.1 cells to cytochalasin B (fenestrae formation) (Py4.1 cells): responsive
induction of fenestrae compared to the untreated control (bEND5 cells): ~100 fold
maximum number of fenestrae (bEND5 cells): 3.5 fenestrae per μm^2
time of treatment at maximum number of fenestrae (bEND5 cells): 2 h
change in the number of fenestrae at 3 hours of treatment (bEND5 cells; versus the maximum at 2 hours): slight decrease
Kd (actin filaments): 10 to 100 nM

C/C1=C/C(=O)O[C@@H]2C[C@@H](CC[C@H](C)/C=C\C=C\CC1)O[C@@](O)([C@@H]1CSC(=O)N1)C2 [latrunculin A]
time of complete disruption of actin microfilaments ([1]; 2.5 μM Latrunculin A): 60 to 120 min
state of the actin cytoskeleton after treatment ([1]; 2.5 μM Latrunculin A, 3 hours): completely disrupted
earliest dramatic changes in the organization of actin, time of treatment [1]: 10 min
time until which cortical actin persisted / was dismantled [1]: ≤ 20 min
time within which stress fibers were reduced [1]: ≤ 20 min
fenestrae formation (Py4.1 cells): susceptible to fenestrae formation
fenestrae formation (Py4.1 cells; listed as Latrunculin A): Abundant fenestrae
state of the actin cytoskeleton after treatment [2]: completely disrupted
fenestrae formation (SVEC cells): no indication of fenestrae
fenestrae formation (SVEC cells; listed as Latrunculin A): No fenestrae
fenestrae formation (HUVEC cells): only very few
fenestrae formation (HUVEC cells; listed as Latrunculin A): rare fenestrae
state of the actin cytoskeleton after treatment [3]: completely disrupted
fenestrae formation (bEND5 cells): susceptible to fenestrae formation
fenestrae formation (bEND5 cells; listed as Latrunculin A): Abundant fenestrae
induction of fenestrae compared to the untreated control (bEND5 cells): ~100 fold
maximum number of fenestrae (bEND5 cells): up to 5.3 fenestrae per μm^2
maximum number of fenestrae (bEND5 cells; listed as Latrunculin A): 5.3 fenestrae per μm^2
potency in inducing fenestrae, comparison of the two agents (bEND5 cells; even when used at lower concentrations): more potent in inducing fenestrae than cytochalasin B
time of treatment at maximum number of fenestrae (bEND5 cells): 3 h
viability of the cells (bEND5 cells; treatments extended over 3 hours): reduced considerably
state of the actin cytoskeleton after treatment [4]: completely disrupted
Kd (actin monomers): ~100 nM

CO[C@H]1C[C@H](CC[C@H](C)[C@H](O)[C@H](C)[C@H]2OC(=O)/C=C/C(C)=C/C[C@H](O)C[C@@H]3C=CC[C@@H](C[C@H](OC)[C@@H](C)[C@@H](O)C[C@@H](O)[C@H](C)[C@@H]([C@@H](C)[C@@H](O)[C@@H](C)CC[C@H]4C[C@H](OC)C[C@H](C)O4)OC(=O)/C=C/C(C)=C/C[C@H](O)C[C@@H]4C=CC[C@@H](C[C@H](OC)[C@@H](C)[C@@H](O)C[C@@H](O)[C@@H]2C)O4)O3)O[C@@H](C)C1 [swinholide A]
induction of fenestrae over untreated control [5]: less than 3 fold
fenestrae levels ([5]; untreated control contained over 3 fenestrae per μm^2): up to 9.1 per μm^2

VEGF
time within which fenestrations are induced [6]: ≤ 10 min
fenestrae induction, cells treated only with VEGF (bEND5 cells; Cytochalasin B omitted from the induction cocktail): minimal induction over background
